Source: ChEMBL document CHEMBL1629525, “Synthesis and characterization of 1,3-dihydro-benzo[b][1,4]diazepin-2-one derivatives: Part 4. In vivo active potent and selective non-competitive metabotropic glutamate receptor 2/3 antagonists” (Bioorg Med Chem Lett, 2010)
In brackets after ≈: the same amount, converted by molar mass.

Columns and labels:
[1] = target: T1, Metabotropic glutamate receptor 2 (Rattus norvegicus, UniProt P31421); experiment: Antagonist activity at recombinant rat mGluR2 expressed in forskolin-stimulated CHO cells assessed as inhibition of (1S,3R)-ACPD induced cAMP production; assay type: functional, cell-based
[2] = target: T1, Metabotropic glutamate receptor 2; experiment: Partial displacement of [3H]LY354740 from recombinant rat mGluR2
Cytochrome P450 3A4 = Cytochrome P450 3A4 (Homo sapiens, UniProt P08684); experiment: Inhibition of CYP3A4; assay type: ADME
[3] = target: Metabotropic glutamate receptor 3 (Rattus norvegicus, UniProt P31422); experiment: Antagonist activity at rat mGluR3 receptor expressed in CHO cells assessed as inhibition of GIRK current; assay type: functional, cell-based
[4] = target: Metabotropic glutamate receptor 2 (Homo sapiens, UniProt Q14416); experiment: Antagonist activity at human mGluR2 receptor expressed in CHO cells assessed as inhibition of GIRK current; assay type: functional, cell-based
[5] = target: T1, Metabotropic glutamate receptor 2; experiment: Antagonist activity at rat mGluR2 receptor expressed in CHO cells assessed as inhibition of GIRK current; assay type: functional, cell-based
[6] = Thermodynamic solubility of the compound at pH 3; assay type: physicochemical; details: buffer

Sequence of Metabotropic glutamate receptor 3 (P31422 whole entry): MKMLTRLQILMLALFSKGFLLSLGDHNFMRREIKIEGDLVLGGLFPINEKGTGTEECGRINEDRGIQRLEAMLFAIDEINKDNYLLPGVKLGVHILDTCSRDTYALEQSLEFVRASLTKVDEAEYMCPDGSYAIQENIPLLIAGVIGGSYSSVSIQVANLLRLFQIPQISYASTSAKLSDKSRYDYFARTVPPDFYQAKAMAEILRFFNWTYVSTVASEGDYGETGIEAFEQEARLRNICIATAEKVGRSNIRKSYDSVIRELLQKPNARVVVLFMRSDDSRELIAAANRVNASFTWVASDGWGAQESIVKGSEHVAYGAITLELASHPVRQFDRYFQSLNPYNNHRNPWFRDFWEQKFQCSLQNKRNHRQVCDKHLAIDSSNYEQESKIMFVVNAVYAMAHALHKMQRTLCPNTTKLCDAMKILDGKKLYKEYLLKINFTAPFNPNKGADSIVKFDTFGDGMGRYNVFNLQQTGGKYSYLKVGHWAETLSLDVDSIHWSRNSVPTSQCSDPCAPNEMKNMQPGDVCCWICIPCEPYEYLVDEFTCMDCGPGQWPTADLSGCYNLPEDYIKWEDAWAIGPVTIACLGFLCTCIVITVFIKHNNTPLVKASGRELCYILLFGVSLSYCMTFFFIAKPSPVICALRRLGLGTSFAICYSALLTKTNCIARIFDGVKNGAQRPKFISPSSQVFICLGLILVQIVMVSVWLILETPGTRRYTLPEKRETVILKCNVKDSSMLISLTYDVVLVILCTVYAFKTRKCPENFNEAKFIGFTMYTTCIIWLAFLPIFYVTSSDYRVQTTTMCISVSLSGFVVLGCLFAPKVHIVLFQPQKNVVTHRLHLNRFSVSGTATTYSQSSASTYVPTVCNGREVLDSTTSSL
Sequence of Metabotropic glutamate receptor 2 (Homo sapiens, UniProt Q14416) (Q14416 whole entry): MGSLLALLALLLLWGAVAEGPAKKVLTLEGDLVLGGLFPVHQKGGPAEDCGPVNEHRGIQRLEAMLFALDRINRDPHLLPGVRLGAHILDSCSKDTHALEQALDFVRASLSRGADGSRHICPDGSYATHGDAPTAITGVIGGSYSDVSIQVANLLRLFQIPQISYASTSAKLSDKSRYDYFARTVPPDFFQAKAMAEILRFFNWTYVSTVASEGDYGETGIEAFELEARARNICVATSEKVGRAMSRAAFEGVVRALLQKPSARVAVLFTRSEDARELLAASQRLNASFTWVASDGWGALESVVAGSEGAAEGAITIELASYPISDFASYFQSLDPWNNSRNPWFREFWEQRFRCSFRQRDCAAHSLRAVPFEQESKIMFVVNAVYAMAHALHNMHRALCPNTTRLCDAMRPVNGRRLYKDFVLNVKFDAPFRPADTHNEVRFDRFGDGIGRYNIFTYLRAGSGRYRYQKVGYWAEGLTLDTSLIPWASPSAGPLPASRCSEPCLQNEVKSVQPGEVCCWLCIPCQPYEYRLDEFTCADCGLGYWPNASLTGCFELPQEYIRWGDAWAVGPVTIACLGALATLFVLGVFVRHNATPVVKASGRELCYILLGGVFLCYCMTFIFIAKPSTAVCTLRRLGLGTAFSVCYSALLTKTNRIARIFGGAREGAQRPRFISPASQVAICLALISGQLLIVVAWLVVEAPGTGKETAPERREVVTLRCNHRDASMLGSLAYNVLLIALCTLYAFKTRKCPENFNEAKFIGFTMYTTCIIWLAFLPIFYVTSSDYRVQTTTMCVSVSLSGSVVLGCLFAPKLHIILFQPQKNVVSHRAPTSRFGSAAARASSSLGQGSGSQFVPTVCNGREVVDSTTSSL
T1 sequence (P31421 whole entry): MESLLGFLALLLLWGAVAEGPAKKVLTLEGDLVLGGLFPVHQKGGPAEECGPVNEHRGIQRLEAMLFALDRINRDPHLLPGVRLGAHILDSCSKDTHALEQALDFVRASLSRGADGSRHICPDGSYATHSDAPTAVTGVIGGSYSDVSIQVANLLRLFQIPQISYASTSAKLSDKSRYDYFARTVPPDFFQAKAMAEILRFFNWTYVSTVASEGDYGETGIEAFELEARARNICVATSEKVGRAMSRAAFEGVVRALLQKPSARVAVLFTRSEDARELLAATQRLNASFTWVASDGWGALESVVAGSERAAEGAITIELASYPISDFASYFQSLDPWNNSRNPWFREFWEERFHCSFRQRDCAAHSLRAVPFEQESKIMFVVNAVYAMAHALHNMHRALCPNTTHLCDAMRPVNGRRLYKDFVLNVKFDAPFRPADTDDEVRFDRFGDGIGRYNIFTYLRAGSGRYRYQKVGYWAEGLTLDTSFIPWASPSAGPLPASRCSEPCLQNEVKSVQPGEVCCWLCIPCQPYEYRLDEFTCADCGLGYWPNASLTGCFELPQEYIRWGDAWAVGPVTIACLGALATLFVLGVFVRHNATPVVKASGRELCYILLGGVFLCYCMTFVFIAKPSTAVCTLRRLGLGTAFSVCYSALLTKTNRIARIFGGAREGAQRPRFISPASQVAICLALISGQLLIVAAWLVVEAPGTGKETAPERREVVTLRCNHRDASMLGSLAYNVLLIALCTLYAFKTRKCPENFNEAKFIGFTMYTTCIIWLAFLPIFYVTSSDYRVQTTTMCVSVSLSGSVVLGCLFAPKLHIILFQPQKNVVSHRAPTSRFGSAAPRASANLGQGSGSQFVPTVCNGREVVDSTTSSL
Sequence of Cytochrome P450 3A4 (P08684 whole entry): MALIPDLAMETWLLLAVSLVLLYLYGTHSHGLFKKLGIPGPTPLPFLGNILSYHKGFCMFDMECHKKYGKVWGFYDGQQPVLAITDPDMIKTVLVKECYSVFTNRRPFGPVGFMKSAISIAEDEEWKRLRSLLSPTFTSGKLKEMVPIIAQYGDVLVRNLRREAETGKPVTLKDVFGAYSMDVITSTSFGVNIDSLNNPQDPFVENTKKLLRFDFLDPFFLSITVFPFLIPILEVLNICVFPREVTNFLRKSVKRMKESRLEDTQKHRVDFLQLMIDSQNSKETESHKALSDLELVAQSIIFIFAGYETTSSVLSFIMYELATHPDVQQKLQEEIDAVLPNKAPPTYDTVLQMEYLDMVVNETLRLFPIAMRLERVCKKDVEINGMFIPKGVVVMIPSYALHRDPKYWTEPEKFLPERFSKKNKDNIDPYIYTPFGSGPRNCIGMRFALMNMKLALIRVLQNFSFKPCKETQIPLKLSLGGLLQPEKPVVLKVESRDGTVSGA

Compound	IC50 [1] [µM]	IC50 [2] [µM]	also measured
Cc1cc2c(cc1C(F)(F)F)NC(=O)CC(c1cccc(-c3ccnc(Cc4ccccc4)c3)c1)=N2	0.005	0.016	
Cc1cc(-c2cccc(C3=Nc4ccc(C(F)(F)F)cc4NC(=O)C3)c2)ccn1	0.036	0.018	IC50 [3]: 0.017 µM; IC50 [4]: 0.025 µM
Cc1cc2c(cc1C(F)(F)F)NC(=O)CC(c1cccc(-c3ccnc(-c4ccccc4)c3)c1)=N2		0.118	
Cc1cc2c(cc1C(F)(F)F)NC(=O)CC(c1cccc(-c3ccnc(C(C)(C)O)c3)c1)=N2	0.014	0.04	
Cc1ccc2c(c1)NC(=O)CC(c1ccccc1)=N2		6.4	
Cc1cc2c(cc1C(F)(F)F)NC(=O)CC(c1cccc(-c3ccnc(N4CCOCC4)c3)c1)=N2		0.029	
O=C1CC(c2cccc(-c3ccncc3)c2)=Nc2ccc(C(F)(F)F)cc2N1	0.026	0.01	IC50 [3]: 0.029 µM; IC50 [4]: 0.052 µM; IC50 [5]: 0.101 µM
Cc1cc(-c2cccc(C3=Nc4cc(C(F)(F)F)c(C(F)(F)F)cc4NC(=O)C3)c2)cc(C)n1	0.007	0.007	
Cc1cc(-c2cccc(C3=Nc4cc(C)c(C(F)(F)F)cc4NC(=O)C3)c2)cc(CO)n1	0.015	0.014	
COCc1cc(-c2cccc(C3=Nc4cc(C)c(C(F)(F)F)cc4NC(=O)C3)c2)cc(C)n1	0.005	0.008	
Cn1nccc1-c1cccc(C2=Nc3ccc(C(F)(F)F)cc3NC(=O)C2)c1	0.19	0.039	
CCc1cc(-c2cccc(C3=Nc4cc(C)c(C(F)(F)F)cc4NC(=O)C3)c2)cc(C)n1	0.004	0.002	
CCOc1cc2c(cc1C(F)(F)F)NC(=O)CC(c1cccc(-c3ccncc3)c1)=N2	0.01	0.004	IC50 [3]: 0.006 µM; IC50 [4]: 0.038 µM; IC50 [5]: 0.008 µM
Cc1nc(-c2cccc(C3=Nc4ccc(C(F)(F)F)cc4NC(=O)C3)c2)co1		0.35	

Now from value to molecule, other results behind:

IC50 [1] [µM]	IC50 [2] [µM]	Compound	also measured
0.003	0.002	Cc1cc2c(cc1C(F)(F)F)NC(=O)CC(c1cccc(-c3cccnc3)c1)=N2	IC50 (Cytochrome P450 3A4): 1.8 µM
0.01	0.004	Cc1cc2c(cc1C(F)(F)F)NC(=O)CC(c1cccc(-c3ccnc(C(C)C)c3)c1)=N2	
0.018	0.013	Cc1cc2c(cc1C(F)(F)F)NC(=O)CC(c1cccc(-c3ccnc(CO)c3)c1)=N2	
0.05	0.006	Cc1cc2c(cc1C(F)(F)F)NC(=O)CC(c1cccc(-c3ccncn3)c1)=N2	
0.016	0.02	Cc1cc2c(cc1C(F)(F)F)NC(=O)CC(c1cccc(-c3cnccn3)c1)=N2	
0.02	0.006	Cc1cc2c(cc1C(F)(F)F)NC(=O)CC(c1cccc(-c3ccc(C4CC4)nc3)c1)=N2	
	0.066	Cc1cc2c(cc1C(F)(F)F)NC(=O)CC(c1cccc(-c3ccnc(C(F)(F)F)c3)c1)=N2	
0.006	0.01	Cc1cc2c(cc1C(F)(F)F)NC(=O)CC(c1cccc(-c3ccnc(C4CC4)c3)c1)=N2	
0.011	0.004	Cc1cc2c(cc1C(F)(F)F)NC(=O)CC(c1cccc(-c3ccncc3)c1)=N2	IC50 (Cytochrome P450 3A4): 0.2 µM; solubility thermodynamic [6]: 5 µg/mL (≈ 12.6 µM)
	0.086	Cc1cc2c(cc1C(F)(F)F)NC(=O)CC(c1cccc(-c3ccc(N(C)C)nc3)c1)=N2	
0.01	0.005	COc1ccc(-c2cccc(C3=Nc4cc(C)c(C(F)(F)F)cc4NC(=O)C3)c2)cn1	
0.16	0.014	Cc1cc2c(cc1C(F)(F)F)NC(=O)CC(c1cccc(-c3ccc(N)nc3)c1)=N2	
